The numbers were not newly measured in US7964202B2, “Method for treatment of common acne” (Galderma Research & Development, S.N.C., priority 2001, dated 2011), which cites them from elsewhere.

Where two headings read alike, the source gives them in different places.

For series [1] the following is noted: in presence of benzoyl peroxide formulation.
The conditions of series [2]: for degradation time: 40° C.

With `CC1=C(/C=C/C(C)=C/C=C/C(C)=C/C(=O)O)C(C)(C)CCC1` [tretinoin], the retinoid degraded was 50% in series [1] (2 hours) and 95% in series [1] (24 hours).

For `COc1ccc(-c2ccc3cc(C(=O)O)ccc3c2)cc1C12CC3CC(CC(C3)C1)C2` [adapalene], in series [1] (24 hours), the retinoid degraded result is reported as “no degradation”.

For `O=C(OOC(=O)c1ccccc1)c1ccccc1` [Benzoyl peroxide], the degradation time in series [2] (in solution in PEG 400 (0.5 mg/g)) was 1.4 days; in series [2] (in solution in ethanol), 29 days; in series [2] (in solution in propylene glycol) it was 53 days. Besides, the “degradation in suspension (dispersed form)” value in series [2] (in water and propylene glycol, storage for 90 days) was “not degraded”. The Benzoyl peroxide solubility is, setting by setting: (solvent PEG 400) 39.6 mg/g; (solvent ethanol) 17.9 mg/g; (solvent glycerol) 0.15 mg/g; (solvent propylene glycol) 2.95 mg/g; (solvent propylene glycol/water (75:25)) 0.36 mg/g; (solvent water) 0.000155 mg/g.
